Data reported in ChEMBL document CHEMBL3046339, “Insecticidal activity of Maytenus species (Celastraceae) nortriterpene quinone methides against codling moth, Cydia pomonella (L.) (Lepidoptera: tortricidae)” (2000).

Legend:
Assay type in all cases: functional
Cydia pomonella [1] = test: Insecticidal activity against Cydia pomonella (codling moth) at 20 mg/kg assessed as growth regulation measured as number of head capsules of larvae after 5 days of continuous exposure (reference value: 0.3 +/- 0.3%)
Cydia pomonella [2] = test: Insecticidal activity against Cydia pomonella (codling moth) assessed as mortality at 20 mg/kg diet topically measured after 10 days of continuous exposure (reference value: 43.3 +/- 26%); settings: topical, 240 h
Cydia pomonella [3] = test: Insecticidal activity against Cydia pomonella (codling moth) assessed as mortality at 2 mg/kg diet topically measured after 5 days of continuous exposure (reference value: 23.3 +/- 18.5%); settings: topical, 120 h
Cydia pomonella [4] = test: Insecticidal activity against Cydia pomonella (codling moth) assessed as mortality at 2 mg/kg diet topically measured after 10 days of continuous exposure (reference value: 43.3 +/- 26%); settings: topical, 240 h
Cydia pomonella [5] = test: Insecticidal activity against Cydia pomonella (codling moth) at 2 mg/kg assessed as growth regulation measured as number of head capsules of larvae after 5 days of continuous exposure (reference value: 0.3 +/- 0.3%)
Cydia pomonella [6] = test: Antifeedant activity against Cydia pomonella (codling moth) at 2 mg/kg diet topically measured after 5 days of continuous exposure (reference value: 30 +/-20.9%)
Cydia pomonella [7] = test: Insecticidal activity against Cydia pomonella (codling moth) assessed as mortality at 20 mg/kg diet topically measured after 5 days of continuous exposure (reference value: 23.3 +/- 18.5%); settings: topical, 120 h
Cydia pomonella [8] = test: Insecticidal activity against Cydia pomonella (codling moth) at 2 mg/kg assessed as growth regulation measured as number of head capsules of larvae after 10 days of continuous exposure (reference value: 1.3 +/- 0.3%)
Cydia pomonella [9] = test: Antifeedant activity against Cydia pomonella (codling moth) at 20 mg/kg diet topically measured after 5 days of continuous exposure (reference value: 30 +/-20.9%)
Cydia pomonella [10] = test: Insecticidal activity against Cydia pomonella (codling moth) at 20 mg/kg assessed as growth regulation measured as number of head capsules of larvae after 10 days of continuous exposure (reference value: 1.3 +/- 0.3%)
Cydia pomonella [11] = test: Antifeedant activity against Cydia pomonella (codling moth) at 20 mg/kg diet topically measured after 10 days of continuous exposure (reference value: 30 +/-20.9%)
Cydia pomonella [12] = test: Antifeedant activity against Cydia pomonella (codling moth) at 2 mg/kg diet topically measured after 10 days of continuous exposure (reference value: 30 +/-20.9%)
Cydia pomonella [13] = test: Insecticidal activity against Cydia pomonella (codling moth) at 40 mg/kg assessed as growth regulation measured as number of head capsules of larvae after 5 days of continuous exposure (reference value: 0.2 +/- 0.2%)
Cydia pomonella [14] = test: Insecticidal activity against Cydia pomonella (codling moth) assessed as mortality at 80 mg/kg diet topically measured after 5 days of continuous exposure (reference value: 0%); settings: topical, 120 h
Cydia pomonella [15] = test: Insecticidal activity against Cydia pomonella (codling moth) assessed as mortality at 80 mg/kg diet topically measured after 10 days of continuous exposure (reference value: 3.3 +/- 3.3%); settings: topical, 240 h
Cydia pomonella [16] = test: Insecticidal activity against Cydia pomonella (codling moth) at 80 mg/kg assessed as growth regulation measured as number of head capsules of larvae after 10 days of continuous exposure Rvb = (1.5 +/- 0.2%)
Cydia pomonella [17] = test: Antifeedant activity against Cydia pomonella (codling moth) at 20 mg/kg diet topically measured after 10 days of continuous exposure (reference value: 6.7 +/- 6.7%)
Cydia pomonella [18] = test: Insecticidal activity against Cydia pomonella (codling moth) assessed as mortality at 40 mg/kg diet topically measured after 5 days of continuous exposure (reference value: 0%); settings: topical, 120 h
Cydia pomonella [19] = test: Antifeedant activity against Cydia pomonella (codling moth) at 20 mg/kg diet topically measured after 5 days of continuous exposure (reference value: 6.7 +/- 6.7%)
Cydia pomonella [20] = test: Insecticidal activity against Cydia pomonella (codling moth) at 80 mg/kg assessed as growth regulation measured as number of head capsules of larvae after 5 days of continuous exposure (reference value: 0.2 +/- 0.2%)
Cydia pomonella [21] = test: Insecticidal activity against Cydia pomonella (codling moth) at 20 mg/kg assessed as growth regulation measured as number of head capsules of larvae after 10 days of continuous exposure Rvb = (1.5 +/- 0.2%)
Cydia pomonella [22] = test: Insecticidal activity against Cydia pomonella (codling moth) at 20 mg/kg assessed as growth regulation measured as number of head capsules of larvae after 5 days of continuous exposure (reference value: 0.2 +/- 0.2%)
Cydia pomonella [23] = test: Insecticidal activity against Cydia pomonella (codling moth) assessed as mortality at 40 mg/kg diet topically measured after 10 days of continuous exposure (reference value: 3.3 +/- 3.3%); settings: topical, 240 h
Cydia pomonella [24] = test: Insecticidal activity against Cydia pomonella (codling moth) assessed as mortality at 20 mg/kg diet topically measured after 5 days of continuous exposure (reference value: 0%); settings: topical, 120 h
Cydia pomonella [25] = test: Insecticidal activity against Cydia pomonella (codling moth) assessed as mortality at 20 mg/kg diet topically measured after 10 days of continuous exposure (reference value: 3.3 +/- 3.3%); settings: topical, 240 h
Cydia pomonella [26] = test: Antifeedant activity against Cydia pomonella (codling moth) at 40 mg/kg diet topically measured after 5 days of continuous exposure (reference value: 6.7 +/- 6.7%)
Cydia pomonella [27] = test: Antifeedant activity against Cydia pomonella (codling moth) at 80 mg/kg diet topically measured after 5 days of continuous exposure (reference value: 6.7 +/- 6.7%)
Cydia pomonella [28] = test: Antifeedant activity against Cydia pomonella (codling moth) at 80 mg/kg diet topically measured after 10 days of continuous exposure (reference value: 6.7 +/- 6.7%)
Cydia pomonella [29] = test: Insecticidal activity against Cydia pomonella (codling moth) at 40 mg/kg assessed as growth regulation measured as number of head capsules of larvae after 10 days of continuous exposure Rvb = (1.5 +/- 0.2%)
Cydia pomonella [30] = test: Antifeedant activity against Cydia pomonella (codling moth) at 40 mg/kg diet topically measured after 10 days of continuous exposure (reference value: 6.7 +/- 6.7%)

| Structure (SMILES) | Activity (Cydia pomonella [13]) | mortality at 80 mg/kg (Cydia pomonella [14]) | mortality at 80 mg/kg (Cydia pomonella [15]) | Activity (Cydia pomonella [16]) | Activity (Cydia pomonella [17]) | mortality at 40 mg/kg (Cydia pomonella [18]) | Activity (Cydia pomonella [19]) | Activity (Cydia pomonella [20]) | Activity (Cydia pomonella [21]) | Activity (Cydia pomonella [22]) | mortality at 40 mg/kg (Cydia pomonella [23]) | mortality at 20 mg/kg (Cydia pomonella [24]) | mortality at 20 mg/kg (Cydia pomonella [25]) | Activity (Cydia pomonella [26]) | Activity (Cydia pomonella [27]) | Activity (Cydia pomonella [28]) | Activity (Cydia pomonella [29]) | Activity (Cydia pomonella [30]) | further results |
| --- | --- | --- | --- | --- | --- | --- | --- | --- | --- | --- | --- | --- | --- | --- | --- | --- | --- | --- | --- |
| C/C=C(\C)C(=O)O[C@H]1C[C@@H](OC(C)=O)[C@@]2(C(=O)OC)CO[C@H]3[C@@H](O)[C@@](C)([C@]45O[C@@]4(C)[C@@H]4C[C@H]5O[C@@H]5OC=C[C@@]54O)[C@H]4[C@]1(CO[C@]4(O)C(=O)OC)[C@@H]32 [AZADIRACHTIN A] |  |  |  |  |  |  |  |  |  |  |  |  |  |  |  |  |  |  | Activity (Cydia pomonella [1]): 0; mortality at 20 mg/kg (Cydia pomonella [2]): 100%; mortality at 2 mg/kg (Cydia pomonella [3]): 50%; mortality at 2 mg/kg (Cydia pomonella [4]): 66.7%; Activity (Cydia pomonella [5]): 0; Activity (Cydia pomonella [6]): 76.7%; mortality at 20 mg/kg (Cydia pomonella [7]): 100%; Activity (Cydia pomonella [8]): 0.3; Activity (Cydia pomonella [9]): 100%; Activity (Cydia pomonella [10]): 0; Activity (Cydia pomonella [11]): 100%; Activity (Cydia pomonella [12]): 70% |
| COC(=O)[C@]1(C)CC[C@]2(C)CC[C@]3(C)C4=CC=C5C(=CC(=O)C(O)=C5C)[C@]4(C)CC[C@@]3(C)[C@@H]2C1 [PRISTIMERIN] | 0 | 90% | 100% | 0 | 93.3% | 33.3% | 96.7% | 0 | 0 | 0 | 60% | 20% | 60% | 83.3% | 90% | 90% | 0 | 83.3% |  |
| CC1=C(O)C(=O)C=C2C1=CC=C1[C@@]2(C)CC[C@@]2(C)[C@@H]3C[C@@H](C)C(=O)C[C@]3(C)CC[C@]12C [TINGENONE] | 0.3 | 13.3% | 23.3% | 0 | 0% | 3.3% | 0% | 0 | 3 | 0.7 | 10% | 0% | 0% | 10% | 100% | 93.3% | 1.4 | 3.3% |  |
